Experimental data taken from patent publication US20240343704A1, “HALO-SUBSTITUTED AMINO PYRIDINE COMPOUNDS AS INHIBITORS OF THE HAEMATOPOIETIC PROGENITOR KINASE 1 (HPK1)” (priority 2021, published 2024).
Structures can show the parent of a compound that is named as a salt. Where two headings read alike, the source gives them in different places.

What was measured:
[1] = biological target: T1, Recombinant (1-346) HPK1 (h) (Homo sapiens, UniProt Q92918); test: HPK1 Human STE Kinase Enzymatic Radiometric Assay; format: biochemical; conditions: read-out: HPK1 IC50 nM Range*
T1 construct: Recombinant (1-346) HPK1 (h) is incubated with 8 mM MOPS pH 7.0
T1 sequence (Q92918 1-346): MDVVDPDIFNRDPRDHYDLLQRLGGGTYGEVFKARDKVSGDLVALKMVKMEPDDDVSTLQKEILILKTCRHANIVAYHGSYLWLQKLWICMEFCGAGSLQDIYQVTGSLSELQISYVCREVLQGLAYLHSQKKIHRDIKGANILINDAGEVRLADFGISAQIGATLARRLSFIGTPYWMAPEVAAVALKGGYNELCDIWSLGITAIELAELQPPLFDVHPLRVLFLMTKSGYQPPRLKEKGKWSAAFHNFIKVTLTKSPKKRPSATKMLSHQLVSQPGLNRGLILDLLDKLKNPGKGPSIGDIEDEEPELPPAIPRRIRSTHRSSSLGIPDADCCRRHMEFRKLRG
Experimental: A stock solution of 10 mM of test compound is prepared in DMSO. The compound plate was prepared by 3-fold and 9-point serial dilutions. […] The reaction is initiated by The addition of the Mg/ATP mix. After incubation for 40 minutes at RT, the reaction is stopped by the addition of phosphoric acid to a concentration of 0.5%.

Lck (h) = Lck (h) (Homo sapiens, UniProt P06239); test: Lck Human  Kinase Enzymatic Radiometric Assay; format: biochemical
Chain of Lck (h) (P06239 whole entry): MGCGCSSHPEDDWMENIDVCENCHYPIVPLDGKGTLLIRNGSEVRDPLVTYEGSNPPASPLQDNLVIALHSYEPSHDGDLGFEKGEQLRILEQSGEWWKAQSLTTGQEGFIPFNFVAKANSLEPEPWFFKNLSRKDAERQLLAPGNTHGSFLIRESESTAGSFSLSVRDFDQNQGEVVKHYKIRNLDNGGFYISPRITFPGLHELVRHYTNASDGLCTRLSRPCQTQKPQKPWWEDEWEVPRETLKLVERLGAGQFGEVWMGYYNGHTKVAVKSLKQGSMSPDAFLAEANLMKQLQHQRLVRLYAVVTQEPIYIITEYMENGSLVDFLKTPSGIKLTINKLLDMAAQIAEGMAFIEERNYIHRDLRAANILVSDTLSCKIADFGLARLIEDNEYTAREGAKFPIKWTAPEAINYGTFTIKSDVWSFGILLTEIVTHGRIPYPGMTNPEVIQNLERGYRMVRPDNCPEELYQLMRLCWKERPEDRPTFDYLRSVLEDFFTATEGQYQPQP
Outline: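 Substrate 33P-incorporation measured by scintillation counting after spotting on P30 filtermat and phosphoric acid washes. Human Lck reacted 40 min at RT in 50 mM Tris pH 7.5 with 10 mM MgAcetate, [gamma-33P]-ATP, 250 uM Cdc2 peptide, 0.1 mM EGTA and 0.1 mM Na3VO4.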

| IC50 [1] [nM] | IC50 (Lck (h); read-out: Lck IC50 nM Range*) [nM] | IC50 (Lck (h); read-out: Lck IC50 nM Range* (number printed instead of a class)) [nM] | Compound |
| --- | --- | --- | --- |
| 11 to 100 | > 1000 |  | CN1CCC(c2ccc(-c3cc(-c4ccc5c(c4)CCNC5=O)c(N)nc3Cl)cc2)CC1 [I-231, 6-(2-amino-6-chloro-5-(4-(1-methylpiperidin-4-yl)phenyl)pyridin-3-yl)-3,4-dihydroisoquinolin-1(2H)-one] |
| 11 to 100 | > 1000 |  | CN1CCC(c2ccc(-c3cc(-c4cc5c(cc4F)C(=O)NCC5)c(N)nc3Cl)cc2)CC1 [I-233, 6-(2-amino-6-chloro-5-(4-(1-methylpiperidin-4-yl)phenyl)pyridin-3-yl)-7-fluoro-3,4-dihydroisoquinolin-1(2H)-one] |
| > 1000 | > 1000 |  | Cc1c(N)cncc1-c1cc(-c2ccc3c(c2)CCNC3=O)c(N)nc1F [I-234, 6-(5,6-diamino-2-fluoro-4′-methyl-[3,3′-bipyridin]-5-yl)-3,4-dihydroisoquinolin-1(2H)-one 2,2,2-trifluoroacetate] |
| 0.1 to 10 | > 1000 |  | CCN1CCC(c2ccc(-c3cc(-c4ccc5c(c4)CCNC5=O)c(N)nc3F)cc2)C1 (stereo not drawn) [I-235, 6-(2-amino-5-(4-(1-ethylpyrrolidin-3-yl)phenyl)-6-fluoropyridin-3-yl)-3,4-dihydroisoquinolin-1(2H)-one] |
| 0.1 to 10 | > 1000 |  | Nc1nc(F)c(-c2ccc(N3CCN(CC(F)(F)F)CC3)cc2)cc1-c1cc2c(cc1F)C(=O)NCC2 [I-237, 6-(2-amino-6-fluoro-5-(4-(4-(2,2,2-trifluoroethyl)piperazin-1-yl)phenyl)pyridin-3-yl)-7-fluoro-3,4-dihydroisoquinolin-1(2H)-one] |
| 0.1 to 10 | > 1000 |  | Nc1nc(F)c(-c2ccc(C3CCNCC3)cc2)cc1-c1cc2c(cc1F)C(=O)NCC2 [I-238, 6-(2-amino-6-fluoro-5-(4-(piperidin-4-yl)phenyl)pyridin-3-yl)-7-fluoro-3,4-dihydroisoquinolin-1(2H)-one 2,2,2-trifluoroacetate] |
| 0.1 to 10 | > 1000 |  | CC(C)N1CCC(F)(c2ccc(-c3cc(-c4ccc5c(c4)CCNC5=O)c(N)nc3F)cc2)CC1 [I-239, 6-(2-amino-6-fluoro-5-(4-(4-fluoro-1-isopropylpiperidin-4-yl)phenyl)pyridin-3-yl)-3,4-dihydroisoquinolin-1(2H)-one] |
| 0.1 to 10 | > 1000 |  | Nc1nc(F)c(-c2ccc(N3CCN(CCC(F)(F)F)CC3)cc2)cc1-c1ccc2c(c1)CCNC2=O [I-240, 6-(2-amino-6-fluoro-5-(4-(4-(3,3,3-trifluoropropyl)piperazin-1-yl)phenyl)pyridin-3-yl)-3,4-dihydroisoquinolin-1(2H)-one] |
| 0.1 to 10 | > 1000 |  | COCCN1CCC(c2ccc(-c3cc(-c4cc5c(cc4F)C(=O)NCC5)c(N)nc3F)cc2)CC1 [I-241, 6-(2-amino-6-fluoro-5-(4-(1-(2-methoxyethyl)piperidin-4-yl)phenyl)pyridin-3-yl)-7-fluoro-3,4-dihydroisoquinolin-1(2H)-one] |
| 0.1 to 10 | > 1000 |  | Nc1nc(F)c(-c2ccc(C3CCN(CC4CC4)CC3)cc2)cc1-c1cc2c(cc1F)C(=O)NCC2 [I-242, 6-(2-amino-5-(4-(1-(cyclopropylmethyl)piperidin-4-yl)phenyl)-6-fluoropyridin-3-yl)-7-fluoro-3,4-dihydroisoquinolin-1(2H)-one] |
| 0.1 to 10 | > 1000 |  | Nc1nc(F)c(-c2ccc(N3CCN(CCC(F)(F)F)CC3)cc2)cc1-c1cc2c(cc1F)C(=O)NCC2 [I-243, 6-(2-amino-6-fluoro-5-(4-(4-(3,3,3-trifluoropropyl)piperazin-1-yl)phenyl)pyridin-3-yl)-7-fluoro-3,4-dihydroisoquinolin-1(2H)-one] |
| 0.1 to 10 | > 1000 |  | CC(C)N1CCC(c2ccc(-c3cc(-c4cc5c(cc4F)C(=O)NCC5)c(N)nc3F)cc2)CC1 [I-244, 6-(2-amino-6-fluoro-5-(4-(1-isopropylpiperidin-4-yl)phenyl)pyridin-3-yl)-7-fluoro-3,4-dihydroisoquinolin-1(2H)-one] |
| 0.1 to 10 | > 1000 |  | CCN1CCC(c2ccc(-c3cc(-c4cc5c(cc4F)C(=O)NCC5)c(N)nc3F)cc2)CC1 [I-245, 6-(2-amino-5-(4-(1-ethylpiperidin-4-yl)phenyl)-6-fluoropyridin-3-yl)-7-fluoro-3,4-dihydroisoquinolin-1(2H)-one] |
| 0.1 to 10 | > 1000 |  | CN1CCN(c2ccc(-c3cc(-c4cc5c(cc4F)C(=O)NCC5)c(N)nc3F)cc2)CC1 [I-246, 6-(2-amino-6-fluoro-5-(4-(4-methylpiperazin-1-yl)phenyl)pyridin-3-yl)-7-fluoro-3,4-dihydroisoquinolin-1(2H)-one] |
| 0.1 to 10 | > 1000 |  | CN1CCN(c2ccc(-c3cc(-c4cc5c(cc4F)C(=O)NCC5)c(N)nc3F)cc2F)CC1 [I-247, 6-(2-amino-6-fluoro-5-(3-fluoro-4-(4-methylpiperazin-1-yl)phenyl)pyridin-3-yl)-7-fluoro-3,4-dihydroisoquinolin-1(2H)-one] |
| 11 to 100 | > 1000 |  | Nc1nc(F)c(-c2ccc(C3CCN(CC(F)(F)F)CC3)cc2)cc1-c1cc2c(cc1F)C(=O)NCC2 [I-248, 6-(2-amino-6-fluoro-5-(4-(1-(2,2,2-trifluoroethyl)piperidin-4-yl)phenyl)pyridin-3-yl)-7-fluoro-3,4-dihydroisoquinolin-1(2H)-one] |
| 0.1 to 10 |  | 381 | CN1CCN(c2ccc(-c3cc(-c4cc5c(cc4F)C(=O)NCC5)c(N)nc3F)cc2C(F)(F)F)CC1 [I-249, 6-(2-amino-6-fluoro-5-(4-(4-methylpiperazin-1-yl)-3-(trifluoromethyl)phenyl)pyridin-3-yl)-7-fluoro-3,4-dihydroisoquinolin-1(2H)-one] |
| 11 to 100 | > 1000 |  | C[C@@H]1CN(c2cc(F)c(-c3cc(-c4ccc5c(c4)CCNC5=O)c(N)nc3F)cc2[N+](=O)[O-])C[C@H](C)N1C [I-250, 6-(2-amino-6-fluoro-5-(2-fluoro-5-nitro-4-((3R,5S)-3,4,5-trimethylpiperazin-1-yl)phenyl)pyridin-3-yl)-3,4-dihydroisoquinolin-1(2H)-one formate] |
| 0.1 to 10 | > 1000 |  | COCCN1CCC(F)(c2ccc(-c3cc(-c4ccc5c(c4)CCNC5=O)c(N)nc3F)cc2)CC1 [I-251, 6-(2-amino-6-fluoro-5-(4-(4-fluoro-1-(2-methoxyethyl)piperidin-4-yl)phenyl)pyridin-3-yl)-3,4-dihydroisoquinolin-1(2H)-one] |
| 0.1 to 10 | > 1000 |  | CN1CCN(c2ccc(-c3cc(-c4cc5c(cc4F)C(=O)NCC5)c(N)nc3F)c(Cl)c2)CC1 [I-252, 6-(2-amino-5-(2-chloro-4-(4-methylpiperazin-1-yl)phenyl)-6-fluoropyridin-3-yl)-7-fluoro-3,4-dihydroisoquinolin-1(2H)-one] |
| 11 to 100 | > 1000 |  | CN1CCc2cc(-c3cc(-c4ccc5c(c4)CCNC5=O)c(N)nc3F)ccc21 [I-253, 6-(2-amino-6-fluoro-5-(1-methylindolin-5-yl)pyridin-3-yl)-3,4-dihydroisoquinolin-1(2H)-one] |
| 11 to 100 | > 1000 |  | CN1CCc2cc(-c3cc(-c4ccc5c(c4)CCNC5=O)c(N)nc3F)ccc2C1 [I-254, 6-(2-amino-6-fluoro-5-(2-methyl-1,2,3,4-tetrahydroisoquinolin-6-yl)pyridin-3-yl)-3,4-dihydroisoquinolin-1(2H)-one] |
| 0.1 to 10 | > 1000 |  | Nc1nc(F)c(-c2ccc3c(c2)CCNC3)cc1-c1ccc2c(c1)CCNC2=O [I-255, 6-(2-amino-6-fluoro-5-(1,2,3,4-tetrahydroisoquinolin-6-yl)pyridin-3-yl)-3,4-dihydroisoquinolin-1(2H)-one 2,2,2-trifluoroacetate] |
| 11 to 100 | > 1000 |  | Nc1nc(F)c(-c2ccc(CN3CCOCC3)cc2)cc1-c1ccc2c(c1)CCNC2=O [I-257, 6-(2-amino-6-fluoro-5-(4-(morpholinomethyl)phenyl)pyridin-3-yl)-3,4-dihydroisoquinolin-1(2H)-one] |

| Compound | IC50 [1] [nM] | IC50 (Lck (h); read-out: Lck IC50 nM Range*) [nM] | IC50 (Lck (h); read-out: Lck IC50 nM Range* (number printed instead of a class)) [nM] |
| --- | --- | --- | --- |
| CN1CC=C(c2ccc(-c3cc(-c4cc5c(cc4F)C(=O)NCC5)c(N)nc3Cl)cc2)CC1 [I-232, 6-(2-amino-6-chloro-5-(4-(1-methyl-1,2,3,6-tetrahydropyridin-4-yl)phenyl)pyridin-3-yl)-7-fluoro-3,4-dihydroisoquinolin-1(2H)-one] | 11 to 100 | > 1000 |  |
| Nc1nc(F)c(-c2ccc(N3CCN(CC(F)F)CC3)cc2)cc1-c1cc2c(cc1F)C(=O)NCC2 [I-236, 6-(2-amino-5-(4-(4-(2,2-difluoroethyl)piperazin-1-yl)phenyl)-6-fluoropyridin-3-yl)-7-fluoro-3,4-dihydroisoquinolin-1(2H)-one] | 0.1 to 10 | > 1000 |  |
| Nc1nc(F)c(-c2ccc(C3CCN(CC(F)F)CC3)cc2)cc1-c1cc2c(cc1F)C(=O)NCC2 [I-256, 6-(2-amino-5-(4-(1-(2,2-difluoroethyl)piperidin-4-yl)phenyl)-6-fluoropyridin-3-yl)-7-fluoro-3,4-dihydroisoquinolin-1(2H)-one] | 0.1 to 10 | > 1000 |  |
